# pIC50: −log10 of the molar value.
# Assay: Anticancer human tumor 997537-175-T-J1-PDC patient-derived colon adenocarcinoma cell line growth inhibition [POLQ]
# Settings: 997537-175-T-J1-PDC complex spheroid viability, combination with POLQ inhibitors; for pIC50: curve of first compound; for viability, T/C: stronger effect = lower value
# Procedure: Multicellular complex tumor spheroid response to Polymerase (POL) inhibitors (novobiocin, ART-558, RP6685) in combination with a variety of drugs and investigational agents in selected tumor cell lines
# The POL inhibitors (novobiocin, ART-558, and RP6685) were evaluated both individually and in combination with standard of care and investigational anticancer small molecules within a complex spheroid model of solid tumors. . Complex spheroids include a stromal component modeled by human endothelial cells (HUVEC) and fibroblasts modeled by human mesenchymal stem cells (MSCs). The concentration ranges selected for each drug and investigational agent were based upon clinically achievable concentrations if the clinical Cmax of the agent was known.
# Compounds. The drugs and investigational agents: novobiocin (NSC847541), ART-558 (NSC835418), RP-6685 (NSC848927), peposertib (NSC802822), ceralasertib (NSC780249), elimusertib (NSC800525), camonsertib (NSC841442), AZD-1390 (NSC803789), olaparib (NSC753686), talazoparib (NSC767125), rucaparib (NSC756644), sotorasib (NSC818433), MRTX-1133 (NSC836407), SN-38 (NSC673596), topotecan (NSC609699), epotoside (NSC141540), doxorubicin (NSC123127), gemcitabine (NSC613327), 5-fluorouracil (NSC19893), paclitaxel (NSC125973), vemurafenib (NSC761431), MSA-2 (NSC828583), SN-011 (NSC837082), adavosertib (NSC754352), prexasertib (NSC758257), carboplatin (NSC241240) and oxaliplatin (NSC266046), were obtained from the National Cancer Institute (NCI) Developmental Therapeutics Program Chemical Repository (21). The FDA-approved anticancer drug set is available from the Developmental Therapeutics Program at https://dtp.cancer.gov/organization/dscb/obtaining/. […] The stock solutions were prepared in dimethyl sulfoxide (DMSO, Sigma-Aldrich, St. Louis, MO, cat. D2650), except for the platinum compounds which were prepared in saline (Quality Biological, Gaithersburg, MD, cat. 114-055-101), at 800-fold the tested concentration and stored at -70 degrees C prior to their use. All drugs and investigational agents were tested over a range starting from a high concentration at or near the clinical Cmax and decreasing in half-log increments. If the clinical Cmax for an agent had not been determined, the highest concentration tested was 10 microM, except for SN-38, which was tested at a high concentration of 1 microM.
# Cell Culture. All cells were maintained in an incubator at 37 degrees C and 5% CO2 with 95% humidity. The PDC lines were cultured according to standard operating procedures established by the NCI PDMR (https://pdmr.cancer.gov). Table 3 of the manuscript, lists the cell lines along with the number of the three cell types plated to form the mct-spheroids and media for tumor cell growth. After thawing, all PDC lines, except 997537-175-T-J1-PDC and 415267-285-R-J2-PDC, were cultured in Matrigel-coated flasks prepared with a working solution of 1X Ham's F-12 nutrient mix, without supplementation (Thermo Fisher Scientific, cat. 11765054), 100 U/mL penicillin-streptomycin (Thermo Fisher Scientific, cat. 15140122), and 2.5% Matrigel (Corning Inc., Corning, NY, cat. 354248) for the first three passages. The two PDC lines 997537-175-T-J1-PDC and 415267-285-R-J2-PDC were cultured on uncoated flasks. The 857933-349-R-J2-PDC line was cultured in 6C/Colon 1B media containing advanced DMEM/F-12 (Thermo Fisher Scientific, cat. 12634028), 10 mM HEPES (Thermo Fisher Scientific, cat. 15630080), 1X GlutaMAX supplement (Thermo Fisher Scientific, cat. 35050061), 0.1 mg/mL primocin (InvivoGen, San Diego, CA, cat. ant-pm-2), 10% defined fetal bovine serum, heat inactivated (HyClone Laboratories Inc., Logan, UT, cat. SH30070.03HI), 50% L-WRN conditioned media (ATCC, cat. CRL-3276), 1.25 mM N-Acetyl-L-cysteine (Sigma-Aldrich, cat. A9165), 10 mM nicotinamide (Sigma-Aldrich, cat. N0636), 1X B-27 supplement (Thermo Fisher Scientific, cat. 17504044), 1X N-2 supplement (Thermo Fisher Scientific, cat. […]
# 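Note: luminescence signal used as a surrogate for viable cells; spheroids exposed to drugs for seven days before readout.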
smiles,measurement,setting,value
O=c1[nH]cc(F)c(=O)[nH]1 + Cc1cccc(N(C)C(=O)C2C(O)CCN2c2nc(C)cc(C(F)(F)F)c2C#N)c1,pIC50,second compound 0.0316 µM,< 5.00
same,pIC50,second compound 0.1 µM,< 5.00
same,pIC50,second compound 0.316 µM,< 5.00
same,pIC50,second compound 1 µM,< 5.00
same,pIC50,second compound 3.16 µM,< 5.00
same,pIC50,second compound 10 µM,< 5.00
same,"viability, T/C","second compound 0.0316 µM, first compound 0.0316 µM",84.2%
same,"viability, T/C","second compound 0.0316 µM, first compound 0.1 µM",109%
same,"viability, T/C","second compound 0.0316 µM, first compound 0.316 µM",95.8%
same,"viability, T/C","second compound 0.0316 µM, first compound 1 µM",96.7%
same,"viability, T/C","second compound 0.0316 µM, first compound 3.16 µM",94.6%
same,"viability, T/C","second compound 0.0316 µM, first compound 10 µM",79.7%
same,"viability, T/C","second compound 0.1 µM, first compound 0.0316 µM",95.8%
same,"viability, T/C","second compound 0.1 µM, first compound 0.1 µM",87.7%
same,"viability, T/C","second compound 0.1 µM, first compound 0.316 µM",103%
same,"viability, T/C","second compound 0.1 µM, first compound 1 µM",108%
same,"viability, T/C","second compound 0.1 µM, first compound 3.16 µM",103%
same,"viability, T/C","second compound 0.1 µM, first compound 10 µM",98.4%
same,"viability, T/C","second compound 0.316 µM, first compound 0.0316 µM",95%
same,"viability, T/C","second compound 0.316 µM, first compound 0.1 µM",96%
same,"viability, T/C","second compound 0.316 µM, first compound 0.316 µM",112%
same,"viability, T/C","second compound 0.316 µM, first compound 1 µM",98.4%
same,"viability, T/C","second compound 0.316 µM, first compound 3.16 µM",94.9%
same,"viability, T/C","second compound 0.316 µM, first compound 10 µM",83.3%
same,"viability, T/C","second compound 1 µM, first compound 0.0316 µM",104%
same,"viability, T/C","second compound 1 µM, first compound 0.1 µM",82.8%
same,"viability, T/C","second compound 1 µM, first compound 0.316 µM",94.7%
same,"viability, T/C","second compound 1 µM, first compound 1 µM",87.5%
same,"viability, T/C","second compound 1 µM, first compound 3.16 µM",87.3%
same,"viability, T/C","second compound 1 µM, first compound 10 µM",91.5%
same,"viability, T/C","second compound 3.16 µM, first compound 0.0316 µM",95%
same,"viability, T/C","second compound 3.16 µM, first compound 0.1 µM",99%
same,"viability, T/C","second compound 3.16 µM, first compound 0.316 µM",98.8%
same,"viability, T/C","second compound 3.16 µM, first compound 1 µM",87.8%
same,"viability, T/C","second compound 3.16 µM, first compound 3.16 µM",95.3%
same,"viability, T/C","second compound 3.16 µM, first compound 10 µM",79.6%
same,"viability, T/C","second compound 10 µM, first compound 0.0316 µM",93.1%
same,"viability, T/C","second compound 10 µM, first compound 0.1 µM",96.4%
same,"viability, T/C","second compound 10 µM, first compound 0.316 µM",103%
same,"viability, T/C","second compound 10 µM, first compound 1 µM",95.1%
same,"viability, T/C","second compound 10 µM, first compound 3.16 µM",89.8%
same,"viability, T/C","second compound 10 µM, first compound 10 µM",71.8%

# From PubChem BioAssay AID1963825 (Molecular Pharmacology Branch, DTP, NCI, 2024)
